Results on 1 substance are retold here after patent US7368115B2, “Method of enhancing neural stem cell proliferation, differentiation, and survival using pituitary adenylate cyclase activating polypeptide (PACAP)” (Stem Cell Therapeutics Inc., priority 2002, dated 2008).

The subject of data set [1] is primary E14 neurospheres. The data set can be described thus: Secondary neurosphere number from dissociated primary neurospheres (self-renewal). The class given is cell-based, mouse. To be noted: primary neurospheres grown with PACAP, replated in EGF or FGF+HS; normalized to growth without PACAP. On the procedure:
FIG. 2. PACAP increased neural stem cell self-renewal in vitro. Primary E14 neurospheres were grown in the indicated conditions, dissociated, and replated in the presence of either EGF or FGF+HS. Neurospheres were counted and data were normalized to either EGF or FGF+HS alone. PACAP increased the number of secondary neurospheres obtained with either EGF or FGF+HS. (* p<0.05, n=3).
Single Cell Dissociation Assay: Single neurospheres ([…]) were dissociated mechanically and then plated in a 96 well plate and incubated for 10 days in vitro in the presence of growth factors.
Primary E14 neurospheres were grown in the indicated conditions in FIG. 2, then dissociated and replated in the presence of either EGF or FGF+HS and the number of secondary neurospheres was counted. Data were normalized to the numbers of secondary neurospheres generated from primary neurospheres grown in the absence of PACAP.

Data set [2] has as its system E14 ganglionic eminence neural stem cells. In words: Primary neurosphere number from dissociated E14 ganglionic eminences (neural stem cell survival). The class given is cell-based, mouse. From the text:
FIG. 1. Pituitary adenylate cyclase-activating polypeptide (PACAP) enhanced neural stem cell survival in vitro. Embryonic day 14 ganglionic eminences (E14 GE) were dissociated and plated at 150 cells/ml in the indicated growth factor conditions. The number of neurospheres was counted after 10 days. Data are expressed relative to the number obtained with epidermal growth factor (EGF) alone (100%). PACAP increased the number of neurospheres obtained with either EGF or fibroblast growth factor (FGF)+heparan sulfate (HS). […] (* p<0.05, n=3).
Cell Culture: Primary embryonic neural stem cells were isolated from E14 ganglionic eminence as previously described (Reynolds and Weiss, 1992). Neurospheres were grown in the presence of EGF (20 ng/ml) or FGF-2 (20 ng/ml)+heparan sulfate (2 μg/ml) growth medium. Passaged neural stem cells were grown at a clonal density (150 cells/ml).
E14 GE were dissociated and plated at 150 cells/ml in EGF, EGF+PACAP, FGF+HS, or FGF+HS+PACAP. The number of neurospheres were counted after 10 days.

The next data set relates to STAT5. In words: STAT5 phosphorylation in cultured neural stem cells (Western blot). It is filed as cell-based. To be noted: data not shown. On the procedure:
(§1) To examine the possible mechanisms of PACAP action on neural stem cells, the effects of PACAP on Akt and STAT5 phosphorylation were investigated. Immunoblots were performed with anti-STAT5 (1:1000, Santa Cruz Biotechnology), anti-phospho-STAT5 (1:1000; Cell Signaling Technology), anti-Akt and anti-phospho-Akt (1:1000; Cell Signaling Technology). […] PACAP also stimulated STAT5 phosphorylation, which was previously shown to be important in neural stem cell neurogenesis. The effects of PACAP on Akt and STAT5 phosphorylation may be critical in mediating actions on neural stem cell survival and neurogenesis.

The next data set relates to Akt. In words: Akt phosphorylation in cultured neural stem cells (Western blot). It is filed as cell-based. Particulars: within 1 to 2 hours, data not shown. On the procedure:
as §1

The subject of data set [3] is primary E14 neurospheres. In words: In vitro neurogenesis: count of β-tubulin immunopositive neurons from neurospheres. The class given is cell-based, mouse. On the procedure: FIG. 3. PACAP enhanced in vitro neurogenesis by neural stem cells. Primary E14 neurospheres were grown in the indicated conditions for seven days and then processed for immunocytochemistry to count the number of B-tubulin immunopositive neurons. Data were normalized to either EGF or FGF+HS alone (100%). PACAP increased the number of neurons in all conditions. (* p<0.01, n=3).
Differentiation of Neurospheres: Neurospheres were plated onto poly-L-ornithine coated coverslips in serum-free medium and subjected to immunocytochemistry after 5 days in vitro. The number of β-III tubulin-positive cells were counted.
Primary E14 neurospheres were grown in either EGF or FGF media in the presence or absence of PACAP for seven days, differentiated for five days in vitro in basal media, and then processed for immunocytochemistry to determine the number of β-tubulin immunopositive neurons. Data were normalized to those obtained with either EGF or FGF+HS alone (100%).

The test system of data set [4] is adult forebrain subventricular zone (SVZ). In words: In vivo proliferation in the adult subventricular zone (BrdU+ cells) after infusion into the lateral ventricle. Further details: species or system CD-1 mice. To be noted: human PACAP 165 μg/ml by osmotic minipump into right lateral ventricle for 6 days; relative to vehicle infused animals. An excerpt: FIG. 4. PACAP infusion stimulated increased proliferation in the adult subventricular zone (SVZ) in vivo. PACAP was infused into the lateral ventricles for six days with an osmotic minipump, followed by a series of BrdU injections. Brains were processed for immunocytochemistry. PACAP increased proliferation in the adult SVZ. (** p<0.05, n=4). […] To examine the actions of the peptide in vivo, CD-1 mice (6–7 weeks of age) were implanted with osmotic minipumps (Alzet 1007D) filled with either human PACAP (American Peptide Company, 165 μg/ml) or vehicle alone (0.9% saline containing 1 mg/ml mouse serum albumin). The cannulae were placed in the right lateral ventricle. Each animal was infused for 6 days and injected with BrdU every two hours for ten hours and killed 0.5 hours after the last injection. Brains were processed for immunohistochemistry as described previously (Shingo et al., 2001) and BrdU+cells were counted in serial sections of the SVZ.

The conditions of data set [5]: Banks, 1993; cited from earlier work.
Data set [6] has as its system embryonic rat cortical precursors. To be noted: Lu and DiCicco-Bloom, 1997; cited from earlier work.

Regarding “PACAP: polypeptide hormone that activates adenylate cyclase; native mammalian form is 38 or 27 amino acids; human PACAP from American Peptide Company used in vivo”, the “number of secondary neurospheres generated by single primary neurospheres” value with primary E14 neurospheres [1] was “significantly increased”. Moreover, the “number of primary neurospheres generated in response to EGF” value in data set [2] (EGF+PACAP vs EGF, 150 cells/ml, counted after 10 days, lesser extent than with FGF-2) is “also increased”. In data set [2] (FGF+HS+PACAP vs FGF+HS, 150 cells/ml, counted after 10 days, PACAP added at beginning of culture), the “number of primary neurospheres generated in response to FGF-2” value was “significantly increased”. Besides, the “neurosphere number with delayed addition of PACAP” value in data set [2] (PACAP addition delayed until 5 days in vitro) was “did not increase”. For the same substance, the STAT5 phosphorylation entry with STAT5 is “stimulated”. For the same substance, in the data set with Akt, the “phosphorylation of Akt” value is on record as “rapid increase”. In addition, the “number of β-tubulin immunopositive neurons generated” value in the data set with primary E14 neurospheres [3] (EGF or FGF media with PACAP for seven days, differentiated five days in vitro, normalized to EGF or FGF+HS alone (100%)) is recorded as “significantly increased”. For the same substance, the “number of neurons generated with delayed PACAP addition” value with primary E14 neurospheres [3] (PACAP addition delayed until after five days in vitro (PACAP at 5 DIV)) is reported as “an increase was observed”. The “number of BrdU incorporating cells in the SVZ” value in data set [4] was “significantly increased”. For the same substance, the “crossing of the blood-brain-barrier” value in data set [5] was “known to cross the blood-brain-barrier”. In addition, the mitosis result in data set [6] was “can decrease mitosis”.
